{
  "source": "patent US20170202792A1",
  "about": "“METHOD FOR TREATING TAU-ASSOCIATED DISEASES” (NATIONAL TAIWAN NORMAL UNIVERSITY, priority 2016, published 2017)",
  "system": "SH-SY5Y tauRD-DsRed cells",
  "test": "Neurite outgrowth in SH-SY5Y tauRD-DsRed cells (TUBB3 staining)",
  "type": "cell-based, human",
  "conditions": "10 μM, pre-treated 8 hours, doxycycline 7 days; untreated = 100%",
  "protocol": "We used SH-SY5Y human cells expressing a DsRed-tagged proaggregation mutant (ΔK280) of the C-terminal repeat domain of tau (tauRD-Gln^244-Glu^372 of the longest tau^441 isoform). The recombinant tauRD-DsRed construct was under the control of a tetracycline-regulated, hybrid human cytomegalovirus (CMV)/TetO2 promoter that can be induced by adding doxycycline. The cell lines were grown in medium containing blasticidin (5 μg/mL) and hygromycin (100 μg/mL).\nSH-SY5Y tauRD-DsRed cells were seeded in 6-well plates (1×10^5/well) in a medium containing all-trans retinoic acid (10 μM, Sigma). After 48 hours of incubation, cells were pre-treated with 10 μM Congo red and 10 μM compound (I) for 8 hours; after which, tauRD-DsRed expression was induced with 1μg/mL doxycycline for 7 days. The cells were then fixed in 4% paraformaldehyde, permeabilized with 0.1% Triton X-100, blocked in 3% BSA, and then stained with the primary antibody anti-TUBB3 (against neuronal Class III β-tubulin) (1:1000; Covance) and with a secondary anti-rabbit Alexa Fluor® 555 antibody (1:500; Molecular Probes). Nuclei were counterstained with 4′,6-diamidino-2-phenylindole (DAPI). The total outgrowth in the untreated, Congo red-treated, and compound (I)-treated cells was assessed using MetaXpress image acquisition and analysis software.",
  "data": [
    {"smiles": "Nc1c(/N=N/c2ccc(-c3ccc(/N=N/c4cc(S(=O)(=O)O)c5ccccc5c4N)cc3)cc2)cc(S(=O)(=O)O)c2ccccc12", "note": "[Congo red, reference compound]", "values": [
      {"measurement": "neurite growth relative to untreated cells", "result": 110, "unit": "%"}
    ]}
  ]
}
